pEC50: −log10 of the molar value. Several values for one entry are separate records, joined by “and”; a condition that tells them apart may be missing. Equal values may be shown once. Read-outs that look alike come from different tables or passages of the source.
Assays:
[1] = biological target: T1, rod CNG channels (CNGA1:CNGB1a) (Bos taurus, UniProt Q00194+Q28181); experiment: Patch-clamp on inside-out patches, heterotetrameric rod CNG channels expressed in Xenopus laevis oocytes; format: cell-based, bovine
T1 construct: expressed in transfected cells; host or cells: Xenopus laevis oocytes (cRNA injection, pGEMHE vector); inside-out patches
T1 sequence (Q00194 whole entry): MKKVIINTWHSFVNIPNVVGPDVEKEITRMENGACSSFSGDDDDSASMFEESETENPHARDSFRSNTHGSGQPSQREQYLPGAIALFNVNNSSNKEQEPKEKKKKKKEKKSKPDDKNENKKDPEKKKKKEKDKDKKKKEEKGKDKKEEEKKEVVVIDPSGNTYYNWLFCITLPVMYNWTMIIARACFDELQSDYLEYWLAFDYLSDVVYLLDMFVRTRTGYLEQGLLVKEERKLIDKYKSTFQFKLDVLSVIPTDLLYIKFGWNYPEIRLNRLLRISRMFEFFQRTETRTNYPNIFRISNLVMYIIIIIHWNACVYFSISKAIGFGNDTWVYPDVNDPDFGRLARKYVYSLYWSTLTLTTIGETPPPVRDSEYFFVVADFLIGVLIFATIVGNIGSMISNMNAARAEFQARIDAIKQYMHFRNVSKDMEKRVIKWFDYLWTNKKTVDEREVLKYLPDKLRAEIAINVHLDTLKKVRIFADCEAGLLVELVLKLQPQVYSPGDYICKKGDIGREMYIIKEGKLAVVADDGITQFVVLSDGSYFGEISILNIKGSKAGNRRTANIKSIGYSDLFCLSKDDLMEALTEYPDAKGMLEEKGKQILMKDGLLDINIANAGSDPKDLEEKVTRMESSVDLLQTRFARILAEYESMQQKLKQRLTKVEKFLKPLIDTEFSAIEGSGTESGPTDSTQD
T1 sequence (Q28181 whole entry): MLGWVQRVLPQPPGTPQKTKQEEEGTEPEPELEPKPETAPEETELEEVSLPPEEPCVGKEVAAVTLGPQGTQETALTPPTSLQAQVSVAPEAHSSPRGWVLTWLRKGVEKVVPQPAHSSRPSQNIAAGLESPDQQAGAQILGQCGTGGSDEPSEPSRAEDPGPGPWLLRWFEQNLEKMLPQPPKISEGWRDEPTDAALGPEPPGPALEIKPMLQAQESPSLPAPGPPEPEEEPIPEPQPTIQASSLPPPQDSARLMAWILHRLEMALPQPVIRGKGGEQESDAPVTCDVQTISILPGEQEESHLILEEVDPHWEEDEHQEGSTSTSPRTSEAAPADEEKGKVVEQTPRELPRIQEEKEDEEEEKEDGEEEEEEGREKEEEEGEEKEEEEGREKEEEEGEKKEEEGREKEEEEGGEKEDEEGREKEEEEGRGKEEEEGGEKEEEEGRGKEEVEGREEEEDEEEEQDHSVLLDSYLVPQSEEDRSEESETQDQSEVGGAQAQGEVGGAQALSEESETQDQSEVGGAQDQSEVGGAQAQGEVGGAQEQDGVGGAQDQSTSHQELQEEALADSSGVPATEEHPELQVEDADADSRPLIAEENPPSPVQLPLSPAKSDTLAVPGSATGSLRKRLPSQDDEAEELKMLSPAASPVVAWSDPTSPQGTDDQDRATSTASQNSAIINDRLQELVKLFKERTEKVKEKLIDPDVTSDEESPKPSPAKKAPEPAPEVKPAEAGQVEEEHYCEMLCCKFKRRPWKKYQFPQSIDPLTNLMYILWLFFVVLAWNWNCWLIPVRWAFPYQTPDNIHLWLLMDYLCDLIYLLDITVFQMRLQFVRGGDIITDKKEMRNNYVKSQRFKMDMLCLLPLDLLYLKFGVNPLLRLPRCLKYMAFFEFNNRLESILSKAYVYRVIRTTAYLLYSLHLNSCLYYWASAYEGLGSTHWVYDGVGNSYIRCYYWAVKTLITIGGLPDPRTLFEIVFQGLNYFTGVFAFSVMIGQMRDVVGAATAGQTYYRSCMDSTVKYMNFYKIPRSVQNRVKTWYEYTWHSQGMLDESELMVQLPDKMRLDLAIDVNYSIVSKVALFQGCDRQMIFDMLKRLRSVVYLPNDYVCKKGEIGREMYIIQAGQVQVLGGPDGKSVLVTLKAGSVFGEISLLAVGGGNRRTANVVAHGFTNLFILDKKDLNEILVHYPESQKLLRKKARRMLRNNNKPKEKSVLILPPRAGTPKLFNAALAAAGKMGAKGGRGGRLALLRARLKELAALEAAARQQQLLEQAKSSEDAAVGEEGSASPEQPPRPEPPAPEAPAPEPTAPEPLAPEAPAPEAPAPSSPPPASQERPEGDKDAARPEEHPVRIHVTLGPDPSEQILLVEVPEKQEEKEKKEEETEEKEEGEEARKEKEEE
Excerpt: The patch pipettes were pulled from borosilicate glass tubing (outer diameter 2.0 mm, inner diameter 1.0 mm; Hilgenberg GmbH, Malsfeld, Germany). The initial resistance of the solution-filled pipettes was 0.6–1.4 MΩ. […] For studying the activation and deactivation kinetics of CNG channels, we performed fast jumps between different ligand concentrations by means of a double-barreled θ-glass pipette mounted on a piezo-driven device, which was controlled by the computer. For measuring the time courses, the recording rate was 20 kHz. […]

[2] = biological target: T2, cone CNG channels (CNGA3:CNGB3) (Homo sapiens, UniProt Q16281+Q9NQW8); experiment: Patch-clamp on inside-out patches, heterotetrameric cone CNG channels expressed in Xenopus laevis oocytes; format: cell-based
T2 construct: expressed in transfected cells; host or cells: Xenopus laevis oocytes (cRNA injection, pGEMHE vector); inside-out patches
T2 sequence (Q16281 1-694): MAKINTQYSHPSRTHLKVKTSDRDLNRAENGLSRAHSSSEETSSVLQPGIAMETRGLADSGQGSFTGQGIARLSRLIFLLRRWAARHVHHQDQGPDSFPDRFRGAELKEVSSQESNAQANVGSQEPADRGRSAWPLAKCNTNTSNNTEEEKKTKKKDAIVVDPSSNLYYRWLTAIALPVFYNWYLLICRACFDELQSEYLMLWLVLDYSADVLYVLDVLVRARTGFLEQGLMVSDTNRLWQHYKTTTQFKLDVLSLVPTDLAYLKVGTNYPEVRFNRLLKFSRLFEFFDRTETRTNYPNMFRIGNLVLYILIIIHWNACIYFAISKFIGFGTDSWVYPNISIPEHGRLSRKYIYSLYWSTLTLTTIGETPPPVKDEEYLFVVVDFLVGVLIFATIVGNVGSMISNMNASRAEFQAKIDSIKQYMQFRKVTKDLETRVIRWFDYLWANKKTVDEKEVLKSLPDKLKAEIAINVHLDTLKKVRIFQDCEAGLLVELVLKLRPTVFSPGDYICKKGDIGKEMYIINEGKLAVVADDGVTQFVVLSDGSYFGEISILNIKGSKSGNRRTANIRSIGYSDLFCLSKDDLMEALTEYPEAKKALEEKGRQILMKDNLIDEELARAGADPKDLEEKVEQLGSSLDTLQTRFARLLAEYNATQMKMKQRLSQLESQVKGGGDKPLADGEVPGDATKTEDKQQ
T2 sequence (Q9NQW8 1-809): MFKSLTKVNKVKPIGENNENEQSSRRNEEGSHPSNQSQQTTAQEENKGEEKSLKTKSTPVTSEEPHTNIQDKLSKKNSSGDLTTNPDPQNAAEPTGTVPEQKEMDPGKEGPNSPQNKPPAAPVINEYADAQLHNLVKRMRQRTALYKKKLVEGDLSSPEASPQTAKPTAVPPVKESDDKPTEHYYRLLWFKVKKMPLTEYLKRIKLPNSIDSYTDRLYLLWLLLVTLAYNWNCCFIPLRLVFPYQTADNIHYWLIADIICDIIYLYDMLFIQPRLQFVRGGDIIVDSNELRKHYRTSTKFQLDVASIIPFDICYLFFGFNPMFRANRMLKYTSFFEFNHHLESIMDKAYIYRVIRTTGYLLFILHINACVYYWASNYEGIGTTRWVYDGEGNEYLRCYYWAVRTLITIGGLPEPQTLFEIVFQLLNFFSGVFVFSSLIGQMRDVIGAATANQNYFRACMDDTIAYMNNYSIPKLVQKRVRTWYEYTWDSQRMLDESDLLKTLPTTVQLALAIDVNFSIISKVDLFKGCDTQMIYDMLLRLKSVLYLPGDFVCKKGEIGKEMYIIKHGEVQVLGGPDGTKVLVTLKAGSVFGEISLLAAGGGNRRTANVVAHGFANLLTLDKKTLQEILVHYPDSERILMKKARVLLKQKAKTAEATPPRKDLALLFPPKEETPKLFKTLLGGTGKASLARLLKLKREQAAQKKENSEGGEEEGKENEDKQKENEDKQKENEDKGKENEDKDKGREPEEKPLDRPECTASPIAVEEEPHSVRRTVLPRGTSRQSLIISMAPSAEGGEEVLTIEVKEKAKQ
Excerpt: The patch pipettes were pulled from borosilicate glass tubing (outer diameter 2.0 mm, inner diameter 1.0 mm; Hilgenberg GmbH, Malsfeld, Germany). The initial resistance of the solution-filled pipettes was 0.6–1.4 MΩ. […] For studying the activation and deactivation kinetics of CNG channels, we performed fast jumps between different ligand concentrations by means of a double-barreled θ-glass pipette mounted on a piezo-driven device, which was controlled by the computer. For measuring the time courses, the recording rate was 20 kHz.
The activation and deactivation time courses were determined by fitting the respective current traces with single exponentials:(3) I(t)=A∗exp[−t/τ] where A is the amplitude, t the time, and τ the time constant for either activation or deactivation.

[3] = cGMP + 50 µM of the cGMP analogue

SMILES | pEC50 [1] | decrease in the apparent affinity of rod CNG channels (increase of cGMP EC50) ([1]; 50 µM analogue) | H (Hill coefficient), rod CNG channels [1, 3] | pEC50 [2] | decrease in the apparent affinity of cone CNG channels ([2]; 50 µM analogue) | H (Hill coefficient), cone CNG channels [2, 3] | effect on rod channels ([1]; 0.1 µM) | potency compared to cGMP, rod channel ([1]; higher potency than cGMP) | H (Hill coefficient), rod CNG channels ([1]; ligand alone) | pEC50 ([1]; ligand alone, concentration-activation relationship, Hill fit, read-out: EC50, rod CNG channels) | cone CNG-channel activation ([2]; 0.1 µM) | potency compared to cGMP, cone channel ([2]; higher potency than cGMP) | H (Hill coefficient), cone CNG channels ([2]; ligand alone) | pEC50 ([2]; ligand alone, concentration-activation relationship, Hill fit, read-out: EC50, cone CNG channels)
O=c1c2nc(Br)n([C@@H]3O[C@@H]4CO[P@@](=O)(S)O[C@H]4[C@H]3O)c2nc2[nH]c(-c3ccccc3)cn12 [Rp-8-Br-PET-cGMPS] | 6.35 | ~ 4.9 fold and ~ 5 fold | 1.90 | 5.36 | ~ 3.2 fold | 1.97 |  |  |  |  |  |  |  | 
Nc1nc2c(nc(Sc3ccc(Cl)cc3)n2[C@@H]2O[C@@H]3COP(=O)(O)O[C@H]3[C@H]2O)c(=O)[nH]1 [8-pCPT-cGMP] |  |  |  |  |  |  | almost no effect on rod channels | ~ 63 times | 2.2 | 6.20 | ~ 90% | ~ 138 times | 1.74 | 7.10

— publication PMC9612005 (Pharmaceutics, 2022)
